Source: article PMC8033753, “Proadrenomedullin N-Terminal 20 Peptides (PAMPs) Are Agonists of the Chemokine Scavenger Receptor ACKR3/CXCR7” (ACS Pharmacology & Translational Science, 2021)
Like-named read-outs stand apart in the source and are kept apart here. Where no end group is shown, it is not given here.

How the values were obtained:
ACKR3 = target: T1, ACKR3 (Homo sapiens, UniProt P25106); experiment: β-arrestin-2 recruitment to ACKR3, nanoluciferase complementation (NanoBiT) in HEK cells; format: cell-based; details: for activity toward ACKR3 (β-arrestin-2 recruitment), in words: concentration range up to 9 μM
T1 construct: expressed in transfected cells; host or cells: HEK293T
T1 sequence (P25106 whole entry): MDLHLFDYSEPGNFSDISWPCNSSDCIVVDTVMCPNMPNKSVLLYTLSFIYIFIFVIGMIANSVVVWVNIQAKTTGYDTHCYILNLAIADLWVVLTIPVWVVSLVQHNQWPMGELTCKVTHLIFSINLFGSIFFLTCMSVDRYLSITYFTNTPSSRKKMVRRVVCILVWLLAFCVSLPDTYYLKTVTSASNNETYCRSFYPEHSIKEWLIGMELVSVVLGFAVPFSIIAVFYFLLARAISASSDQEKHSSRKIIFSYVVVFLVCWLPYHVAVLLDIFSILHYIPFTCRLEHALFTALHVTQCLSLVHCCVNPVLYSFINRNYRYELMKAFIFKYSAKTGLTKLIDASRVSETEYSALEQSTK
Experimental: (§1) Ligand-induced recruitment of β-arrestin, miniGi or miniGq proteins (engineered GTPase domain of Gα subunit)[46],[47] to the receptors was monitored using NanoBiT technology (Promega), as previously described.[27],[48] HEK293T cells (5 × 10^6 cells) were seeded in 10 cm dishes, and 24 h later, the cells were cotransfected with pNBe plasmids encoding the receptor C-terminally fused to SmBiT and β-arrestin, miniGi, or miniGq N-terminally fused to LgBiT. After 24 h, the cells were detached and incubated for 25 min at 37 °C with Nano-Glo Live Cell substrate diluted 200-fold, distributed into white 96-well plates (1 × 10^5 cells/well), and treated with the indicated concentrations of peptides. Luminescence was recorded during 20 min with a Mithras LB940 luminometer (Berthold Technologies). For the concentration–response curves, the signal recorded with a saturating concentration of full agonist for each receptor was set as 100%. For receptor screening experiments, results were expressed as fold vehicle, and an agonist chemokine (100 nM) listed in the IUPHAR repository of chemokine receptor ligands was included as a positive control for each receptor.
(§2) Concentration–response curves were fitted to the four-parameter Hill equation using an iterative, least-squares method (GraphPad Prism version 8.0.1). All curves were fitted to data points generated from the mean of at least three independent experiments. Statistical tests, i.e., ordinary one-way ANOVA and post hoc analysis were performed with GraphPad Prism 8.0.1. The p-values are indicated as follows: *, p < 0.05; **, p < 0.01; ***, p < 0.001; and ****, p < 0.0001.

MrgX2 = target: T2, MrgX2 (Homo sapiens, UniProt Q96LB1); experiment: β-arrestin-2 recruitment to MrgX2, NanoBiT in HEK cells; format: cell-based
T2 construct: expressed in transfected cells; host or cells: HEK293T
T2 sequence (Q96LB1 1-330): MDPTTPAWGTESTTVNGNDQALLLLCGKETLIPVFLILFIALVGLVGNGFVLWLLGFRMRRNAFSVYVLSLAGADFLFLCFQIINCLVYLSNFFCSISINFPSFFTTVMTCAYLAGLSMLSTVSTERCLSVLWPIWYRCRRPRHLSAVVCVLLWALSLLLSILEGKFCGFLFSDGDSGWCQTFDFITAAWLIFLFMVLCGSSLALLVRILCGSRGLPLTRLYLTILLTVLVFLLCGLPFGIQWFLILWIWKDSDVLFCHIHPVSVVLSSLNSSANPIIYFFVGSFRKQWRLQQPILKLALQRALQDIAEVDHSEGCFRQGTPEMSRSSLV
Experimental: as §1, §2

GPR182 = target: T3, GPR182 (Homo sapiens, UniProt O15218); experiment: β-arrestin-2 recruitment to GPR182 (NanoBiT screen); format: cell-based; details: peptides 3 μM
T3 construct: expressed in transfected cells; host or cells: HEK293T
T3 sequence (O15218 whole entry, species assumed): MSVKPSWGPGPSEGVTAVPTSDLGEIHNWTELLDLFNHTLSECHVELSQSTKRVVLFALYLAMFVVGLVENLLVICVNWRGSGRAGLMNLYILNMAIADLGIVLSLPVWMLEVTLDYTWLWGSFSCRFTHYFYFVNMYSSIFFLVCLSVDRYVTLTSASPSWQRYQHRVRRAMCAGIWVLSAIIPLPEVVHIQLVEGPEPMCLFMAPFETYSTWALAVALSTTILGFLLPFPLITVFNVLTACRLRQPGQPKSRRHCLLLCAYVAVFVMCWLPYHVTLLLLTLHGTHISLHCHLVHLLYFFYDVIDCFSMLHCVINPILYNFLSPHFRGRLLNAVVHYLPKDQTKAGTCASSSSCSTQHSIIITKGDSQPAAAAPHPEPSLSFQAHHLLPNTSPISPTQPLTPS
Experimental: as §1

[1] = system: all known classical and atypical human chemokine receptors; experiment: β-arrestin-2 recruitment screen toward all chemokine receptors (NanoBiT); format: cell-based; details: peptides 3 μM, fold change over vehicle
Experimental: as §1

HEK-ACKR3 cells = experiment: PAMP-12-FAM uptake by HEK-ACKR3 cells, imaging flow cytometry; format: cell-based, human; details: chemokine 200 nM, 15 min preincubation; PAMP-12-FAM 3 μM, 45 min at 37 °C
Experimental: HEK293T or HEK-ACKR3 cells were harvested in Opti-MEM and distributed into 96-well plates (3 × 10^5 cells/well). […] At 24 h post-transfection, the cells were harvested and treated as described above. Dead cells were excluded using Zombie NIR viability dye (BioLegend). Images of 1 × 10^4 in-focus, living single cells were acquired with an ImageStream Mark II imaging flow cytometer (Amnis) equipped with an extended depth of field (EDF) module and using 60× magnification. Samples were analyzed using Ideas6.2 software. The number of spots per cell was determined using a mask-based software wizard.

[2] = EC50, β-arrestin-2 recruitment toward MrgX2, HEK cells, NanoBiT, normalised to full agonist, three independent experiments
[3] = pEC50 ± S.E.M, β-arrestin recruitment, MrgX2 (Supplementary Table 1), HEK cells, NanoBiT, NA: no activity detected in the concentration range tested
[4] = pEC50 ± S.E.M, β-arrestin-2 recruitment, ACKR3 (Supplementary Table 2), HEK cells, NanoBiT, three independent experiments

Molecule | EC50 (ACKR3; [4]) | EC50 (MrgX2) | also measured
ARLDVASEFRKKWNKWALSR-NH2 [PAMP] |  |  | EC50 (ACKR3): > 10 µM; EC50 (MrgX2; [2]): 6.2 µM; EC50 (MrgX2; [3]): 6.17 µM; activity toward GPR182, in words (GPR182): no activity
FRKRWNKWALSR-NH2 | 0.759 µM | 1.91 µM | 
FRKKWNKYALSR-NH2 | 0.776 µM | 0.741 µM | 
ARKKWNKWALSR-NH2 | 46.8 µM | 0.933 µM | 
FRKKWNKWAASR-NH2 | 2.88 µM | 1.48 µM | 
FKKKWNKWALSR-NH2 | 3.31 µM | 1.45 µM | 
FRKKWNKWAFSR-NH2 | 0.955 µM | 0.741 µM | 
CC(C)C[C@H](NC(=O)[C@H](C)NC(=O)[C@H](Cc1c[nH]c2ccccc12)NC(=O)[C@H](CCCCN)NC(=O)[C@H](CC(N)=O)NC(=O)[C@H](Cc1c[nH]c2ccccc12)NC(=O)[C@H](CCCCN)NC(=O)[C@H](CCCCN)NC(=O)[C@H](CCCNC(=N)N)NC(=O)[C@@H](N)Cc1ccccc1)C(=O)N[C@@H](CO)C(=O)N[C@@H](CCCNC(=N)N)C(N)=O [PAMP-12] |  |  | EC50 (MrgX2; [2]): 0.785 µM; EC50 (MrgX2; [3]): 0.776 µM; activity toward GPR182, in words (GPR182): no activity
DVASEFRKKWNKWALSR-NH2 [PAMP 4-20] | 178 µM | 3.31 µM | 
FRKKWAKWALSR-NH2 | 0.832 µM | 0.479 µM | 
FRKKWDKWALSR-NH2 | 0.589 µM | 0.479 µM | 
FRKKANKWALSR-NH2 | 7.59 µM | 2 µM | 
CT: CGRP family peptide [reference compound] |  |  | activity toward ACKR3 (β-arrestin-2 recruitment), in words (ACKR3; HEK cells, NanoBiT): No activity
FRRKWNKWALSR-NH2 | 0.468 µM | 2.75 µM | 
FRKKWNKFALSR-NH2 | 1.15 µM | 1.05 µM | 
FRKKWNKWALS-NH2 [FRKKWNKWALS -] | 2.57 µM | 1.55 µM | 
FRKKWNKWGLSR-NH2 | 1.58 µM | 1.1 µM | 
FRKKWQKWALSR-NH2 | 0.776 µM | 4.68 µM | 
FRKKWNKWALSK-NH2 | 1.02 µM | 0.794 µM | 
FRKKWNKAALSR-NH2 | 2.24 µM | 2.51 µM | 
FRKKWNKWALSA-NH2 | 11.2 µM | 5.75 µM | 
WNKWALSR-NH2 [PAMP 13-20] | 11.7 µM |  | 

Molecule | EC50 (ACKR3; [4]) | EC50 (MrgX2) | also measured
AFRKKWNKWALSR-NH2 | 2 µM | 0.891 µM | 
FRKKYNKWALSR-NH2 | 3.16 µM | 2.45 µM | 
FRKKWNAWALSR-NH2 | 1.26 µM | 0.55 µM | 
CC[C@H](C)[C@H](NC(=O)[C@H](CCC(N)=O)NC(=O)[C@H](Cc1c[nH]cn1)NC(=O)[C@H](C)NC(=O)[C@H](CC(C)C)NC(=O)[C@H](CCCCN)NC(=O)[C@H](CCC(N)=O)NC(=O)[C@@H](NC(=O)[C@@H](NC(=O)[C@@H]1CSSC[C@H](NC(=O)CNC(=O)[C@H](Cc2ccccc2)NC(=O)[C@H](CO)NC(=O)[C@H](CCCNC(=N)N)NC(=O)[C@H](CC(C)C)NC(=O)CNC(=O)[C@H](CCC(N)=O)NC(=O)[C@H](Cc2ccccc2)NC(=O)[C@H](CC(N)=O)NC(=O)[C@H](CC(N)=O)NC(=O)[C@H](CCSC)NC(=O)[C@H](CO)NC(=O)[C@H](CCC(N)=O)NC(=O)[C@H](CCCNC(=N)N)NC(=O)[C@@H](N)Cc2ccc(O)cc2)C(=O)N[C@@H](CCCNC(=N)N)C(=O)N[C@@H](Cc2ccccc2)C(=O)NCC(=O)N[C@@H]([C@@H](C)O)C(=O)N1)[C@@H](C)O)C(C)C)C(=O)N[C@@H](Cc1ccc(O)cc1)C(=O)N[C@@H](CCC(N)=O)C(=O)N[C@@H](Cc1ccccc1)C(=O)N[C@H](C(=O)N[C@@H](CC(=O)O)C(=O)N[C@@H](CCCCN)C(=O)N[C@@H](CC(=O)O)C(=O)N[C@@H](CCCCN)C(=O)N[C@@H](CC(=O)O)C(=O)N[C@@H](CC(N)=O)C(=O)N[C@H](C(=O)N[C@@H](C)C(=O)N1CCC[C@H]1C(=O)N[C@@H](CCCNC(=N)N)C(=O)N[C@@H](CO)C(=O)N[C@@H](CCCCN)C(=O)N[C@H](C(=O)N[C@@H](CO)C(=O)N1CCC[C@H]1C(=O)N[C@@H](CCC(N)=O)C(=O)NCC(=O)N[C@@H](Cc1ccc(O)cc1)C(N)=O)[C@@H](C)CC)C(C)C)[C@@H](C)O [ADM] |  |  | activity toward GPR182, in words (GPR182): no activity
CC(C)C[C@H](NC(=O)[C@H](C)NC(=O)[C@H](Cc1c[nH]c2ccccc12)NC(=O)[C@H](CCCCN)NC(=O)[C@H](CC(N)=O)NC(=O)[C@H](Cc1c[nH]c2ccccc12)NC(=O)[C@H](CCCCN)NC(=O)[C@H](CCCCN)NC(=O)[C@H](CCCNC(=N)N)NC(=O)[C@@H](N)Cc1ccccc1)C(=O)N[C@@H](CO)C(=O)N[C@@H](CCCNC(=N)N)C(=O)O | 1.58 µM | 2.29 µM | 
FRAKWNKWALSR-NH2 | 1.35 µM | 0.977 µM | 
FAKKWNKWALSR-NH2 | 9.33 µM | 1 µM | 
FRKAWNKWALSR-NH2 | 0.269 µM | 0.661 µM | 
FRKKFNKWALSR-NH2 | 4.27 µM | 0.589 µM | 
KWNKWALSR-NH2 [PAMP(12–20)] |  |  | agonist activity toward the other 24 chemokine receptors tested, in words [1]: do not activate
RKKWNKWALSR-NH2 [- RKKWNKWALSR] | 28.8 µM | 2.09 µM | 
ARLDVASEFRKKWNKWA [PAMP1-17] | 331 µM | 95.5 µM | 
FRKKWNRWALSR-NH2 | 0.331 µM | 1.95 µM | 
FRKKWNKWFLSR-NH2 | 0.513 µM | 0.417 µM | 
CXCL12: chemokine, full agonist of ACKR3; purchased from PeproTech |  |  | effect of chemokine preincubation on PAMP-12-FAM accumulation in HEK-ACKR3 cells, in words (HEK-ACKR3 cells): reduced PAMP-12 accumulation to background levels
FRKKWNKWALTR-NH2 | 0.575 µM | 0.269 µM | 
CSCC[C@H](NC(=O)[C@H](CC(C)C)NC(=O)CNC(=O)[C@H](Cc1ccccc1)NC(=O)[C@H](Cc1ccccc1)NC(=O)[C@H](CCC(N)=O)NC(=O)[C@H](CCC(N)=O)NC(=O)[C@@H]1CCCN1C(=O)[C@H](CCCCN)NC(=O)[C@@H]1CCCN1C(=O)[C@@H](N)CCCNC(=N)N)C(N)=O [substance P, reference compound] |  |  | activity toward ACKR3 (β-arrestin-2 recruitment), in words (ACKR3; HEK cells, NanoBiT): no activity
YRKKWNKWALSR-NH2 | 6.76 µM | 0.912 µM | 
FRKKWNKWALFR-NH2 | 0.575 µM | 0.209 µM | 
AMY: CGRP family peptide (KCNTATCATQRLANFLVHSSNNFGAILSSTNVGSNTY; not fully specified (C-terminus, bridges); cysteine pairing not given here; UniProt P10997 34-70, looked up) [reference compound] |  |  | activity toward ACKR3 (β-arrestin-2 recruitment), in words (ACKR3; HEK cells, NanoBiT): No activity
FRKKWNKWALAR-NH2 | 0.912 µM | 0.339 µM | 
